Reference: patent US12448389B2, “BRM targeting compounds and associated methods of use” (Prelude Therapeutics Incorporated, priority 2020, dated 2025)

What was measured:
SMARCA2-HiBiT = molecular target: T1, SMARCA2-HiBiT (Homo sapiens, UniProt P51531); assay: SMARCA2 HiBiT degradation assay in HeLa cells; format: cell-based; settings: 18 hours incubation; for DC50: read-out: HeLa_HiBit-SM2 DC50; for Dmax: HeLa, read-out: HeLa-HiBit-SM2 Dmax (%)
T1 construct: SMARCA2-HiBiT knock-in Hela monoclonal cell (CS302366); host or cells: HeLa monoclonal knock-in line (CRISPR HiBiT knock-in at the endogenous locus, heterozygous)
T1 sequence (P51531 whole entry): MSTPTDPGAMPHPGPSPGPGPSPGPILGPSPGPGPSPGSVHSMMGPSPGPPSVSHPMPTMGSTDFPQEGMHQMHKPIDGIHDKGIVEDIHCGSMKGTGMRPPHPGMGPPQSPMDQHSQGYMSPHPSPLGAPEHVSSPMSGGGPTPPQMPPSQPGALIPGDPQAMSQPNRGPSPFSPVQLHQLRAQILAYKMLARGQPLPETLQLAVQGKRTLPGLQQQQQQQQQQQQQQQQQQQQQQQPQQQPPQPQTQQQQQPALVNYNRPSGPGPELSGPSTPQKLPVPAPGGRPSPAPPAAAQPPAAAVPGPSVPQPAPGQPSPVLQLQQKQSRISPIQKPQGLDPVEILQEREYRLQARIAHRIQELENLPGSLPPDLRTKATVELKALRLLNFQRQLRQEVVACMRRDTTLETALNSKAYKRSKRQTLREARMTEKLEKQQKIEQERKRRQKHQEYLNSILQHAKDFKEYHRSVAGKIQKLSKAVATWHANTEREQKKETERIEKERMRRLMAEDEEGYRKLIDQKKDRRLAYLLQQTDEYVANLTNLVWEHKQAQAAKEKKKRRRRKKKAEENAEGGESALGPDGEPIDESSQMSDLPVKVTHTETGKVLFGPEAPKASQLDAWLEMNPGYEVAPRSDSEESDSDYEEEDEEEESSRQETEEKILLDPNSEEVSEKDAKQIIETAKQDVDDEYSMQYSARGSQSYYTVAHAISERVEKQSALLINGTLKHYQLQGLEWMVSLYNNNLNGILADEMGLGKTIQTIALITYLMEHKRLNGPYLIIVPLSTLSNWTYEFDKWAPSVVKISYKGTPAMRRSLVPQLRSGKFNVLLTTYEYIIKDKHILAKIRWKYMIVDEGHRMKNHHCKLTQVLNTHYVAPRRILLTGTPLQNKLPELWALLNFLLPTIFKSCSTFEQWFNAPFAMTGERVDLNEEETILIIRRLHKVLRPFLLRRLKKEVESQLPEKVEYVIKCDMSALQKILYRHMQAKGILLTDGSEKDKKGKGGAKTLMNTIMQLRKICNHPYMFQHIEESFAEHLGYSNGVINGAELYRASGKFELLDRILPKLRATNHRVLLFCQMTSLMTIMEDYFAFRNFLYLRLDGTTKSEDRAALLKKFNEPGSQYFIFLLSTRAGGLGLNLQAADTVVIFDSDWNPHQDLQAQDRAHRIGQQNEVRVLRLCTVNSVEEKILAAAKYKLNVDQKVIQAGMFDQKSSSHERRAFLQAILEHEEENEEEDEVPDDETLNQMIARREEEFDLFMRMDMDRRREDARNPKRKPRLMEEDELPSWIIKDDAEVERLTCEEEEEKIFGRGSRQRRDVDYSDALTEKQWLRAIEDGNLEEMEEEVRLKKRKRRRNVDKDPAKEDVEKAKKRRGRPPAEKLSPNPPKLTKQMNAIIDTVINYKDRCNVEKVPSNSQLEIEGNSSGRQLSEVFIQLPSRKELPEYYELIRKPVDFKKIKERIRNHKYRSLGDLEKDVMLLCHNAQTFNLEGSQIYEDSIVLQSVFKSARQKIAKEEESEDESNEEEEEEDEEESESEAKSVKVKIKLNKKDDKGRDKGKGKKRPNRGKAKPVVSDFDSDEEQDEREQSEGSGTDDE
Protocol: (§1) HiBiT peptide knock-in of SMARCA2 in LgBiT expressing HEK293T cells was performed by CRISPR-mediated tagging system as described Promega. The homozygous HiBiT knock-in on c-terminus SMARCA2 was confirmed by sanger sequence. SMARCA2-HiBiT knock-in Hela monoclonal cell (CS302366) and SMARCA4-HiBiT knock-in Hela monoclonal cell (CS3023226) were purchased from Promega. The heterozygous HiBiT-knock-in was confirmed by sanger sequence in both SMARCA2-HiBiT and SMARCA4-HiBiT monoclonal cells.
(§2) SMARCA2 HiBiT and SMARCA4 HiBiT Degradation Assay in HeLa Cells
(§3) Dispense 10 ul aliquot of prepared Hela-SMARCA2-HiBiT or Hela-SMARCA4-HiBiT cells (1:1 ratio of cells:Trypan Blue (#1450013, Bio-Rad)) onto cell counting slide (#145-0011, Bio-Rad) and obtain cell density and cell viability using cell counter (TC20, Bio-Rad). Remove appropriate volume of resuspended cells from culture flask to accommodate 2500 cells/well @20 μL/well. Transfer Hela-HiBiT cells to 50 mL conical (#430290, Corning). Spin down at 1000 rpm for 5 min using tabletop centrifuge (SPINCHRON 15, Beckman). Discard supernatant and resuspend cell pellet in modified EMEM (#30-2003, ATCC) cell culture media containing 10% FBS (F2422-500ML, Sigma), and 1×Penicillin/Streptomycin (200 g/L) (30-002-CI, Corning) to a cell density of 125,000 cells/mL. Dispense 20 μL of resuspended Hela-HiBit cells per well in 384-well TC treated plate (#12-565-343, Thermo Scientific) using standard cassette (#50950372, Thermo Scientific) on Multidrop Combi (#5840310, Thermo Scientific) inside laminar flow cabinet. Dispense test compounds onto plates using digital liquid dispenser (D300E, Tecan). Incubate plates in humidified tissue culture incubator @37° C. for 18 hours. Add 20 μL of prepared Nano-Glo® HiBiT Lytic detection buffer (N3050, Promega) to each well of 384-well plate using small tube cassette (#24073295, Thermo Scientific) on Multidrop Combi, incubate @RT for 30-60 min. Read plates on microplate reader (Envision 2105, PerkinElmer) using 384 well Ultra-Sensitive luminescence mode. Raw data files and compound information reports are swept into centralized data lake and deconvoluted using automated scripts designed by TetraScience, Inc. Data analysis, curve-fitting and reporting done in Dotmatics Informatics Suite using Screening Ultra module.

SMARCA4-HiBiT = molecular target: T2, SMARCA4-HiBiT (Homo sapiens, UniProt P51532); assay: SMARCA4 HiBiT degradation assay in HeLa cells; format: cell-based; settings: 18 hours incubation; for DC50: read-out: HeLa-HiBit-SM4 DC50; for Dmax: HeLa, read-out: HeLa-HiBit-SM4 Dmax (%)
T2 construct: SMARCA4-HiBiT knock-in Hela monoclonal cell (CS3023226); host or cells: HeLa monoclonal knock-in line (CRISPR HiBiT knock-in at the endogenous locus, heterozygous)
T2 sequence (P51532 whole entry): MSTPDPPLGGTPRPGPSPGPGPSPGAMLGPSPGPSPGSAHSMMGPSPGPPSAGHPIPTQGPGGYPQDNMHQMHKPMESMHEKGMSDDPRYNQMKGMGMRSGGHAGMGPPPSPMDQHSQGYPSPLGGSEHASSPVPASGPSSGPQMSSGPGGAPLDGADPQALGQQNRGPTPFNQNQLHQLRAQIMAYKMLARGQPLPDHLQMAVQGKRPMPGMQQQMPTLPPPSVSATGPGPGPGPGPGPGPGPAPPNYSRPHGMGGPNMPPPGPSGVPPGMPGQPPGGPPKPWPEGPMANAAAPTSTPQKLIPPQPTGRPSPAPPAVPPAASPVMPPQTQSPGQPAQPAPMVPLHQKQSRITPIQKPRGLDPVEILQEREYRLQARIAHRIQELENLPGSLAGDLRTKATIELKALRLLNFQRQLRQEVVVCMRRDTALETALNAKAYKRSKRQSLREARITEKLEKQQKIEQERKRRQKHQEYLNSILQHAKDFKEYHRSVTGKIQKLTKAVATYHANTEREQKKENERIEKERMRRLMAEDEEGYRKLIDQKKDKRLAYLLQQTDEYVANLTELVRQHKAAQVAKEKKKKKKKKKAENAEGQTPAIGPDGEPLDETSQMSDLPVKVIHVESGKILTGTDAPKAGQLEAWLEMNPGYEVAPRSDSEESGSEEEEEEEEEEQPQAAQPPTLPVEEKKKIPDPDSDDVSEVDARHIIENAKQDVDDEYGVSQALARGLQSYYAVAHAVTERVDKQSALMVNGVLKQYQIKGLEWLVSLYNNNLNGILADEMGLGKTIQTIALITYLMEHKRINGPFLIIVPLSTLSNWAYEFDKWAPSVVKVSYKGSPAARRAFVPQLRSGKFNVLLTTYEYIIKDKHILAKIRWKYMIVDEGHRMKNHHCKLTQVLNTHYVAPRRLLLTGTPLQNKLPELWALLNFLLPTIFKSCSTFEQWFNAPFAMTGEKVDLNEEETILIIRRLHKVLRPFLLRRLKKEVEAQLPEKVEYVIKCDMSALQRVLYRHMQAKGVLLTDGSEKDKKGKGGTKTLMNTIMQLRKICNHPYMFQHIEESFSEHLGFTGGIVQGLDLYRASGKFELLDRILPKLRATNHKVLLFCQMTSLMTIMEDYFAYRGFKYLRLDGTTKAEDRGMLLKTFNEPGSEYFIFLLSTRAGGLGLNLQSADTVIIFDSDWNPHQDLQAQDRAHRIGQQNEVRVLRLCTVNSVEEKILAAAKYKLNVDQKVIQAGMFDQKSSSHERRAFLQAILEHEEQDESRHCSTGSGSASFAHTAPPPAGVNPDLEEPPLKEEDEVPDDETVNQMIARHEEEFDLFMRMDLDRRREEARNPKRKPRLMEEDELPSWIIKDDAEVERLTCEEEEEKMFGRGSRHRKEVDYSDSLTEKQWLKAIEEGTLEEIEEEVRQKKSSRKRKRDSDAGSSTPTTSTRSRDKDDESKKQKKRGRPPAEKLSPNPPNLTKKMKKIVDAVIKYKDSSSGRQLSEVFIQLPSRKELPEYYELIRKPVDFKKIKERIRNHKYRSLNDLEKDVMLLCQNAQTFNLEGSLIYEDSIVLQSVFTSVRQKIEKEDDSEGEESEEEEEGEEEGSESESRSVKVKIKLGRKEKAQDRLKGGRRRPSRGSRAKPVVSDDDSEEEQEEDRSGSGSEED
Protocol: as §1, §2, §3

Structure (SMILES) | DC50 (SMARCA2-HiBiT) | Dmax (SMARCA2-HiBiT) | DC50 (SMARCA4-HiBiT) | Dmax (SMARCA4-HiBiT)
C[C@@H](CN1CCC(N2CCN3c4cc(-c5ccccc5O)nnc4NC[C@H]3C2)CC1)Nc1cccc2c1C(=O)N(C1CCC(=O)NC1=O)C2=O (stereo partly drawn) [Example 71, 2-(2,6-dioxopiperidin-3-yl)-4-(((S)-1-(4-((S)-2-(2-hydroxyphenyl)-5,6,6a,7,9,10-hexahydro-8H-pyrazino[1′,2′:4,5]pyrazino[2,3-c]pyridazin-8-yl)piperidin-1-yl)propan-2-yl)ammo)isoindoline-1,3-dione] | < 0.01 µM | 75 to 85% | < 0.01 µM | 75 to 85%
O=C1CCC(N2C(=O)c3ccc(N4CCC(CN[C@H]5C[C@@H](CN6CCN7c8cc(-c9ccccc9O)nnc8NC[C@H]7C6)C5)CC4)cc3C2=O)C(=O)N1 (stereo partly drawn) [Example 78, 2-(2,6-dioxopiperidin-3-yl)-5-(4-((((1R,3s)-3-(((S)-2-(2-hydroxyphenyl)-5,6,6a,7,9,10-hexahydro-8H-pyrazino[1′,2′:4,5]pyrazino[2,3-c]pyridazin-8-yl)methyl)cyclobutyl)amino)methyl)piperidin-1-yl)isoindolme-1,3-dione] | < 0.01 µM | > 85% | < 0.01 µM | > 85%
CN(CCN1CCC(CN2CCN3c4cc(-c5ccccc5O)nnc4NC[C@H]3C2)CC1)c1ccc2c(c1)C(=O)N(C1CCC(=O)NC1=O)C2=O (stereo partly drawn) [Example 246, 2-(2,6-dioxopiperidin-3-yl)-5-((2-(4-(((S)-2-(2-hydroxyphenyl)-5,6,6a,7,9,10-hexahydro-8H-pyrazino[1′,2′:4,5]pyrazino[2,3-c]pyridazin-8-yl)methyl)piperidin-1-yl)ethyl)(methyl)amino)isoindoline-1,3-dione] | < 0.01 µM | 75 to 85% | < 0.01 µM | 50 to 75%
O=C1CCC(N2C(=O)c3cc(F)c(N4CCC(CN5C[C@@H]6[C@H](C5)[C@H]6CN5CCN6c7cc(-c8ccccc8O)nnc7NC[C@H]6C5)CC4)cc3C2=O)C(=O)N1 (stereo partly drawn) [Example 173, 2-(2,6-dioxopiperidin-3-yl)-5-fluoro-6-[4-[[(1S,5R)-6-[[(10S)-4-(2-hydroxyphenyl)-1,5,6,8,12-pentazatricyclo[8.4.0.02,7]tetradeca-2,4,6-trien-12-yl]methyl]-3-azabicyclo[3.1.0]hexan-3-yl]methyl]piperidin-1-yl]isoindole-1,3-dione] | < 0.01 µM | 75 to 85% | 0.01 to 0.1 µM | 50 to 75%
CCC1CN(CC2CCN(c3ccc4c(c3)C(=O)N(C3CCC(=O)NC3=O)C4=O)CC2)CCN1C(=O)N1CCN2c3cc(-c4ccccc4O)nnc3NC[C@H]2C1 (stereo partly drawn) [Example 269, 2-(2,6-dioxopiperidin-3-yl)-5-(4-((3-ethyl-4-((S)-2-(2-hydroxyphenyl)-6,6a,7,8,9,10-hexahydro-5H-pyrazino[1′,2′:4,5]pyrazino[2,3-c]pyridazine-8-carbonyl)piperazin-1-yl)methyl)piperidin-1-yl)isoindoline-1,3-dione] | < 0.01 µM | 75 to 85% | 0.01 to 0.1 µM | 50 to 75%
O=C1CCC(N2C(=O)c3ccc(N4CCC(CNC5CCC(CN6CCN7c8cc(-c9ccccc9O)nnc8NC[C@H]7C6)CC5)CC4)cc3C2=O)C(=O)N1 (stereo partly drawn) [Example 167, 2-(2,6-dioxopiperidin-3-yl)-5-[4-[[[4-[[(10S)-4-(2-hydroxyphenyl)-1,5,6,8,12-pentazatricyclo[8.4.0.02,7]tetradeca-2,4,6-trien-12-yl]methyl]cyclohexyl]amino]methyl]piperidin-1-yl] isoindole-1,3-dione] | < 0.01 µM | > 85% | < 0.01 µM | > 85%

Continued, values first:

DC50 (SMARCA2-HiBiT) | Dmax (SMARCA2-HiBiT) | DC50 (SMARCA4-HiBiT) | Dmax (SMARCA4-HiBiT) | Structure (SMILES)
< 0.01 µM | 50 to 75% | 0.01 to 0.1 µM | 75 to 85% | CN(CC1CCN(CC2CCN(c3ccc4c(c3)C(=O)N(C3CCC(=O)NC3=O)C4=O)CC2)CC1)C1CCN2c3cc(-c4ccccc4O)nnc3NCC2C1 (stereo not shown) [Example 254, 2-(2,6-dioxopiperidin-3-yl)-5-(4-((4-(((2-(2-hydroxy-phenyl)-6,6a,7,8,9,10-hexahydro-5H-pyrido[1′,2′:4,5]pyrazino[2,3-c]pyridazin-8-yl)(methyl)amino)methyl)piperidin-1-yl)methyl)piperidin-1-yl)isoindoline-1,3-dione]
< 0.01 µM | > 85% | < 0.01 µM | 50 to 75% | O=C1CCC(N2C(=O)c3ccc(N4CCC(O)(CN5C[C@@H]6[C@@H](CN7CCN8c9cc(-c%10ccccc%10O)nnc9NC[C@H]8C7)[C@@H]6C5)CC4)cc3C2=O)C(=O)N1 (stereo partly drawn) [Example 47, 2-(2,6-dioxopiperidin-3-yl)-5-(4-hydroxy-4-(((1R,5S,6s)-6-(((S)-2-(2-hydroxyphenyl)-5,6,6a,7,9,10-hexahydro-811-pyrazino[1′,2′:4,5]pyrazino[2,3-c]pyridazin-8-yl)methyl)-3-azabicyclo[3.1.0]hexan-3-yl)methyl)piperidin-1-yl) isoindoline-1,3-dione]
< 0.01 µM | > 85% | < 0.01 µM | > 85% | C[C@@H]1C[C@H](CN2CCC(CN3CCN4c5cc(-c6ccccc6O)nnc5NC[C@H]4C3)CC2)CCN1c1ccc2c(c1)C(=O)N(C1CCC(=O)NC1=O)C2=O (stereo partly drawn) [Example 184, 2-(2,6-dioxopiperidin-3-yl)-5-[(2R,4R)-4-[[4-[[(10S)-4-(2-hydroxyphenyl)-1,5,6,8,12-pentazatricyclo[8.4.0.02,7]tetradeca-2,4,6-trien-12-yl]methyl]piperidin-1-yl]methyl]-2-methylpiperidin-1-yl]isoindole-1,3-dione]
< 0.01 µM | ≤ 50% | 0.01 to 0.1 µM | ≤ 50% | O=C1CCC(N2C(=O)c3cc(F)c(N4CCN(CC5CCN(C(=O)N6CCN7c8cc(-c9ccccc9O)nnc8NC[C@H]7C6)CC5)CC4)cc3C2=O)C(=O)N1 (stereo partly drawn) [Example 263, 2-(2,6-dioxopiperidin-3-yl)-5-fluoro-6-(4-((1-((S)-2-(2-hydroxyphenyl)-6,6a,7,8,9,10-hexahydro-5H-pyrazino[1′,2′:4,5]pyrazino[2,3-c]pyridazine-8-carbonyl)piperidin-4-yl)methyl)piperazin-1-yl)isoindoline-1,3-dione]
< 0.01 µM | ≤ 50% | < 0.01 µM | ≤ 50% | O=C1CCC(N2Cc3ccc(N4CCC(CN5Cc6cnc(N7CCN8c9cc(-c%10ccccc%10O)nnc9NC[C@H]8C7)nc6C5)CC4)cc3C2=O)C(=O)N1 (stereo partly drawn) [Example 61, 3-(6-(4-((2-((S)-2-(2-hydroxyphenyl)-5,6,6a,7,9,10-hexahydro-8H-pyrazino[1′,2′:4,5]pyrazino[2,3-c]pyridazin-8-yl)-5,7-dihydro-6H-pyrrolo[3,4-d]pyrimidin-6-yl)methyl)piperidin-1-yl)-1-oxoisoindolin-2-yl)piperidine-2,6-dione]
< 0.01 µM | > 85% | < 0.01 µM | > 85% | O=C1CCC(N2Cc3cc(CN4CCC(CCCN5CCC(N6CCN7c8cc(-c9ccccc9O)nnc8NC[C@H]7C6)CC5)CC4)ccc3C2=O)C(=O)N1 (stereo partly drawn) [Example 65, 3-(5-((4-(3-(4-((S)-2-(2-hydroxyphenyl)-5,6,6a,7,9,10-hexahydro-8H-pyrazino[1′,2′:4,5]pyrazino[2,3-c]pyridazin-8-yl)piperidin-1-yl)propyl)piperidin-1-yl)methyl)-1-oxoisoindolin-2-yl)piperidine-2,6-dione]
< 0.01 µM | > 85% | < 0.01 µM | 50 to 75% | O=C1CCC(N2C(=O)c3ccc(N4CCC(CN5CC6CC(CN7CCN8c9cc(-c%10ccccc%10O)nnc9NC[C@H]8C7)C6C5)CC4)cc3C2=O)C(=O)N1 (stereo partly drawn) [Example 177, 2-(2,6-dioxopiperidin-3-yl)-5-[4-[[6-[[(10S)-4-(2-hydroxyphenyl)-1,5,6,8,12-pentazatricyclo[8.4.0.02,7]tetradeca-2,4,6-trien-12-yl]methyl]-3-azabicyclo[3.2.0]heptan-3-yl]methyl]piperidin-1-yl]isoindole-1,3-dione]
